3 molecules from ChEMBL document CHEMBL1157276, “Halogenated monoterpenes from plocamium costatum and their biological activity1” (1999) can be followed below.

Holding throughout (assay type): functional
The subject of assay [1] is Amphibalanus amphitrite. The experiment in a line: Antifouling activity against cypris larvae at 10 ug/cm'2.
Assay [2] deals with Amphibalanus amphitrite. The experiment in a line: Antifouling activity against cypris larvae at 0.01 ug/cm'2.
The subject of assay [3] is Amphibalanus amphitrite. The experiment in a line: Antifouling activity against cypris larvae at 1 ug/cm'2.
The test system of assay [4] is Amphibalanus amphitrite. In words: Antifouling activity against cypris larvae at 0.1 ug/cm'2.

Take `C=C(C)C(Cl)C/C=C(\C)C(Cl)CBr` (configuration not stated): the Activity in the assay on Amphibalanus amphitrite [1] is 58%; in the assay on Amphibalanus amphitrite [2], 57%; in the assay on Amphibalanus amphitrite [3], 53%; in the assay with Amphibalanus amphitrite [4], 52%.

Regarding `C=CC(C)(O)CCCC(C)CCCC(C)CCCC(C)C` (configuration not stated), the Activity with Amphibalanus amphitrite [1] stood at 13%; in the assay on Amphibalanus amphitrite [2], 43%; with Amphibalanus amphitrite [3], 23%; with Amphibalanus amphitrite [4] it was 54%.

`C[C@](Cl)(/C=C/[C@H](Cl)[C@](C)(Cl)/C=C/Br)C(Br)Br`: the Activity in the assay on Amphibalanus amphitrite [1] is recorded as 2.2%; in the assay on Amphibalanus amphitrite [2] it was 42%; with Amphibalanus amphitrite [3], 37%; in the assay on Amphibalanus amphitrite [4], 54%.
